As usually defined, the Solubility is the dissolved amount per volume that the medium holds. The low end stands for a poorly soluble substance, the high end for a readily soluble substance. What is called GI50 is the concentration at which growth is held to half of that of the control. Higher therefore signals less potent growth inhibition.

The record followed here is patent US9701644B2, “Salt of nitrogen-containing heterocyclic compound or crystal thereof, pharmaceutical composition, and FLT3 inhibitor” (FUJIFILM Corporation, priority 2013, dated 2017).

Values after ≈ are worked out from the molar mass of the structure shown. Structures can show the parent of a compound that is named as a salt.

Data set [1] can be described thus: Solubility test in water. It counts as physicochemical. The following applies: room temperature, stirred 24 hours. Here is the method: The compounds of Examples 1 and 3 were chosen as test compounds.
The compound A was chosen as a comparative compound.
The test compounds and the comparative compound were each added to water, and each mixture was stirred at room temperature for 24 hours. The insoluble matter was removed by filtration using a membrane filter (0.2 μm). The filtrate was analyzed by HPLC to obtain solubility.

Data set [2] is described as follows: Storage stability test (1), open glass bottle, 2 weeks. The following applies: for storage stability / Moisture content / Purity: open glass bottle; for storage stability / change of the purity and moisture content after storage: in words; for change of the purity and moisture content after storage: storage over 2 weeks. It counts as physicochemical. Here is the method: (§1) The purities are represented in terms of area % measured by high performance liquid chromatography (HPLC). The HPLC measurement was performed by using Prominence (Shimadzu) under the following conditions.
Crystals of the compounds of Examples 1 and 3 were chosen as test substances.
Each test substance (200 mg) was put into a glass bottle of an open state, and stored for 2 weeks under the storage condition 1 (25° C., 75% relative humidity), or the storage condition 2 (40° C., 75% relative humidity). Purity and moisture content of the test substance were measured before the start of the test and after the end of the test.

The subject of data set [3] is MV4-11 cells. The data set is described as follows: Leukemic cell growth inhibition test (MV4-11). It counts as cell-based. The following applies: MV4-11, 72 hours culture, CellTiter-Glo. Here is the method:
(§2) A leukemic cell growth inhibition test was performed by using the leukemic cell strains MV4-11 (ATCC Number, CRL-9591) and MOLM-13 (DSMZ Number, ACC554).
(§3) The leukemic cell growth inhibition test was performed by the method described below.
(§4) For the purpose of measuring growth inhibition with a test compound, the total cell count was quantified on the basis of the total cellular ATP concentration using the CellTitet-Glo (PerkinElmer) reagent that enables quantification of ATP concentration based on the luciferin-luciferase reaction. The MOLM-13 or MV4-11 cells were added to the RPMI medium containing penicillin (100 units/mL), streptomycin (100 μg/mL), and 10% FBS at a density of 2×10^5 cells/ml, and 50 μL (10,000 cells) of the mixture was inoculated to each well of a 96-well plate (Corning).
(§5) A serially diluted solution of a test compound or 0.1% DMSO (solvent control) in a volume of 50 μL was added to the cells, and then the cells were cultured for 72 hours under the standard cell proliferation conditions (37° C., 5% CO2) to allow proliferation of the cells. In order to measure the total cell proliferation, equal volume of the CellTitet-Glo reaction mixture was added to each well in accordance with the instructions attached to CellTitet-Glo, and luminescence count was quantified (relative light unit, RLU).
(§6) The RLU signal observed for the DMSO solvent control after 72 hours of culture was defined as a signal indicating 0% inhibition, and the GI50 value for the growth inhibition corresponds to a concentration of a compound that provides 50% inhibition of the total cell proliferation observed in the DMSO solvent control. Each data point was obtained from samples prepared in duplicate. The GI50 values were calculated by the non-linear regression fitting (Fit Model (205)) according to a sigmoid dose-reaction equation using the XLfit software.
In general terms: ATP-based viability assays read luminescence as a measure of living cells.

The nature of data set [4]: Storage stability test (2), double plastic bag, 4 weeks. It counts as physicochemical. Here is the method:
as §1
The crystals of the compound of Example 1 were chosen as test substance.
The test substance (200 mg) was put into double plastic bag, and the opening was tied up. The bag was stored for 4 weeks under the storage condition 1 (25° C., 75% relative humidity), or the storage condition 2 (40° C., 75% relative humidity). Purity and moisture content of the test substance were measured before the start of the test and after the end of the test.

For data set [5], the system named is MOLM-13 cells. The data set can be described thus: Leukemic cell growth inhibition test (MOLM-13). It counts as cell-based. The following applies: MOLM-13, 72 hours culture, CellTiter-Glo. Here is the method: as §2, §3, §4, §5, §6
The mark [6] stands for this setting: storage condition 1 (25° C., 75% relative humidity), 2 weeks.
Setting [7] is: storage condition 2 (40° C., 75% relative humidity), 2 weeks.
[8] abbreviates: storage condition 1 (25° C., 75% relative humidity), 4 weeks.
Where [9] appears, read: storage condition 2 (40° C., 75% relative humidity), 4 weeks.

The compound `CCCNc1nc(Nc2ccc(C#N)cc2)ncc1C#CCCCNC(=O)[C@H](C)N(C)C(=O)/C=C/CN(C)C` [Compound A, (S,E)-N-(1-((5-(2-((4-cyanophenyl)amino)-4-(propylamino)pyrimidin-5-yl)pent-4-yn-1-yl)amino)-1-oxopropan-2-yl)-4-(dimethylamino)-N-methylbut-2-enamide] gave a Solubility in data set [1] of 0.02 mg/mL (≈ 37.7 µM).
As for `CCCNc1nc(Nc2ccc(C#N)cc2)ncc1C#CCCCNC(=O)[C@H](C)N(C)C(=O)/C=C/CN(C)C` [Example 1, succinate of the compound A], the storage stability result in data set [2] (2 weeks) is “superior”. Further, the Moisture content in data set [2] (before start of test) worked out at 0.5%; in data set [2] (setting [6]), 0.2%; in data set [2] (setting [7]), 0.2%; in data set [4] (before start of test), 0.2%; in data set [4] (setting [8]), 0.2%; in data set [4] (setting [9]) it was 0.2%. In addition, the Purity in data set [2] (before start of test) worked out at 99.6%; in data set [2] (setting [6]), 99.6%; in data set [2] (setting [7]), 99.6%; in data set [4] (before start of test), 99.4%; in data set [4] (setting [8]), 99.4%; in data set [4] (setting [9]), 99.4%. Further, in data set [2], the “change of the purity and moisture content after storage” value is listed as “little change”. In addition, in data set [1], the Solubility came out at 70.0 mg/mL. Moreover, the GI50 is 0.52 nM in data set [3] (Homo sapiens, MV4-11, 72 h) and 1.47 nM in data set [5] (Homo sapiens, MOLM-13, 72 h).
With `CCCNc1nc(Nc2ccc(C#N)cc2)ncc1C#CCCCNC(=O)[C@H](C)N(C)C(=O)/C=C/CN(C)C` [Example 2, succinate of the compound A], the Moisture content amounted to 1.7% in data set [2] (before start of test), 3.2% in data set [2] (setting [6]) and 2.1% in data set [2] (setting [7]). Moreover, the Purity is reported as 99.7% in data set [2] (before start of test), 99.6% in data set [2] (setting [6]) and 99.6% in data set [2] (setting [7]). In addition, the GI50 in data set [3] was 0.6 nM; in data set [5], 1.5 nM.
Consider `CCCNc1nc(Nc2ccc(C#N)cc2)ncc1C#CCCCNC(=O)[C@H](C)N(C)C(=O)/C=C/CN(C)C` [Example 3, fumarate of the compound A], for which the storage stability result in data set [2] (2 weeks) is recorded as “superior”. Also, the “change of the purity and moisture content after storage” value in data set [2] was “little change”. The Solubility in data set [1] was found to be 0.89 mg/mL. Besides, the GI50 in data set [3] was 0.6 nM; in data set [5] it was 1.6 nM.
